Experimental data published in patent US10253027B2, “Aryl lactam kinase inhibitors” (Bristol-Myers Squibb Company, priority 2013, dated 2019).

Tests used:
GST-Xa-hAAK1 = biological target: T1, GST-Xa-hAAK1 (Homo sapiens, UniProt Q2M2I8); assay: AAK1 Kinase Assay; format: biochemical; conditions: IC50 (nM), ATP 22 μM; 3 hours at room temperature; Caliper LabChip 3000
T1 construct: made in house
Method in brief: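 Bacterially expressed GST-Xa-hAAK1 was combined with substrates and compounds (eleven concentrations) and incubated 3 h at room temperature, then stopped with EDTA. Fluorescent substrate and phosphorylated product were separated electrophoretically (Caliper LabChip), and IC50 values came from non-linear regression.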

mice = assay: formalin paw test (paw flinching, pain response); format: in vivo, mouse
Protocol: AAK1 homozygous (−/−) and their wild-type (+/+) littermates were tested using the formalin paw test in order to assess their acute and tonic nociceptive responses. For these tests, Automatic Nociception Analyzers (purchased from the Ozaki lab at University of California, San Diego) were used. A metal band was placed around the left hind paw of each mouse 30 minutes prior to testing. After the 30-minute acclimation period, 20 μl of 5% formalin is subcutaneously injected in the dorsal surface of the left hind paw. Mice were individually housed in cylindrical chambers for 45 minutes. Fresh 5% formalin solution was prepared by diluting formaldehyde (Formalde-fresh 20%, Fisher Scientific, Fair Lawn, N.J.) with distilled water. Investigatory compounds were administered 30 minutes prior to formalin injection.
A computer recorded flinches per minute, total flinches for phase I (acute phase=first 8 minutes), and total flinches for phase II (tonic phase=time between minutes 20-40) through an electromagnetic field. See Yaksh T L, Ozaki G, McCumber D, Rathbun M, Svensson C, Malkmus S, Yaksh M C. An automated flinch detecting system for use in the formalin nociceptive bioassay. J Appl Physiol., 2001; 90:2386-402. Phase 1 and phase 2 data were obtained using homozygous (−/−) mice females (n=16), wild-type females (n=15), homozygous (−/−) mice males (n=9), and wild-type males (n=18).
The same test was used to confirm that the administration of an AAK1 inhibitor can also affect pain response.
A compound of the disclosure was tested in this assay at different doses. Gabapentin and pregabalin were used as positive controls. Results are shown below in Table 3, wherein the effect of gabapentin at 200 mg/kg is considered a 100% response, the % response for the other compounds is relative to the 200 mg/kg dose of gabapentin, “sc” means subcutaneous administration; “po” means oral administration.

[1] = 60 mg/kg sc, % response relative to gabapentin 200 mg/kg (=100%), compound given 30 minutes prior to formalin
[2] = 50 mg/kg sc, % response relative to gabapentin 200 mg/kg (=100%), compound given 30 minutes prior to formalin

T1 sequence (Q2M2I8 whole entry): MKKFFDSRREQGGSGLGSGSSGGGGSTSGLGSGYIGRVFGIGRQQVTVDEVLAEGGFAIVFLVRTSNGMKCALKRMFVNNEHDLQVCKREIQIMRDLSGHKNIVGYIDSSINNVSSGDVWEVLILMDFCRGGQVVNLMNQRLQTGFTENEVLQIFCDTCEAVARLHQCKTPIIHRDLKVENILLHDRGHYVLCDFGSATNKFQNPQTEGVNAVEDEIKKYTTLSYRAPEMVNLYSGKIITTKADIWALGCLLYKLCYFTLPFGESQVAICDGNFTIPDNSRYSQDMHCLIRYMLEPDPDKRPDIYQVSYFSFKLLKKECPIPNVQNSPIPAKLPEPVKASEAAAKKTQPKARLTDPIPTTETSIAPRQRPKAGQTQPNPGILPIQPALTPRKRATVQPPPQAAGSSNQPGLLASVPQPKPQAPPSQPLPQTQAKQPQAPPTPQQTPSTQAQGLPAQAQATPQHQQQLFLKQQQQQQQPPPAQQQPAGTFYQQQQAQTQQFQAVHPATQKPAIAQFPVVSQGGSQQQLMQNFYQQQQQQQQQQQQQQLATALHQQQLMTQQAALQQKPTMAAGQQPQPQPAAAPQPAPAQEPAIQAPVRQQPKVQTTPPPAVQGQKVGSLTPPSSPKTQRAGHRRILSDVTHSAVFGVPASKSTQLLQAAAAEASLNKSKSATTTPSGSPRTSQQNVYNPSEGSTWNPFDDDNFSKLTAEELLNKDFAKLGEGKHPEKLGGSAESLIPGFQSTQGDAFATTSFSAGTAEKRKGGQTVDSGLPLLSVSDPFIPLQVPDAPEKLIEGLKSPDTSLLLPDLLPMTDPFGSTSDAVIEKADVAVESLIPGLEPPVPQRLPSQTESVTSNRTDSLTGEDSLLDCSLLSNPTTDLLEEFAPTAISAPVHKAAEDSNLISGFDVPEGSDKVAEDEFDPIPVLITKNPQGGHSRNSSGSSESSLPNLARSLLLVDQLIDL

| Structure (SMILES) | IC50 (GST-Xa-hAAK1) | Response (mice; [1]) | Response (mice; [2]) | Response (mice; 200 mg/kg sc, gabapentin at 200 mg/kg is considered a 100% response) |
| --- | --- | --- | --- | --- |
| COc1cc(NC(=O)[C@H](N)CC(C)C)ccc1-c1cnco1 [Example 1, (R)-2-Amino-N-(3-methoxy-4-(oxazol-5-yl)phenyl)-4-methylpentanamide] | 36 nM | 90% | – | – |
| CC(C)C[C@@H](N)C(=O)Nc1ccc(-c2cnco2)c(OC(F)F)c1 [Example 18, (R)-2-Amino-N-(3-(difluoromethoxy)-4-(oxazol-5-yl)phenyl)-4-methylpentanamide] | 35 nM | 100% | – | – |
| NCC1(CC(=O)O)CCCCC1 [Gabapentin] | – | – | 60% | 100% |
| CC(C)C[C@H](CN)CC(=O)O [Pregabalin, pregabalin] | – | – | 90% | – |
